Experimental data taken from patent US10993895B2, “Composition obtainable by passing singlet oxygen through extra virgin olive oil” (priority 2017, dated 2021).

What was measured:
[1] = test system: Incised Wound Rattus Norvegicus; experiment: Acute toxicity study on incised wound healing in rats; format: in vivo; set-up: Neo vascularization: key to the marks not given beside the values
Experimental: Research Protocol: Acute Toxicity Study on the Incised Wound healing Rattus Norvegicus In Vivo research on animals
(§1) 1. Preparation of animals:
1. Inject the animals with anesthesia drug containing ketamine hydrochloride, 0.1-0.2 ml as illustrated in 101 of FIG. 1.
2. Place them back into the cage while waiting them fully unconscious as the effect of the drug.
(§2) 3. Shave the back hair of the animals with razor blade.
4. Give antiseptics, i.e. povidone iodine and alcohol. Wait for three minutes as illustrated in 102 of FIG. 1.
5. Make a 2-cm long incision on the animal's back as illustrated in 103 of FIG. 1. Should any bleeding occurred, wipe with cotton.
6. Apply cotton bud ton the incision spot.
7. Cover the spot with gauze bandage and stick it with plaster as illustrated in 104 of FIG. 1.
8. Place the animal back in to the cage.
2. Fixation Tissue Protocol
The skin organs from treatment and control group are taken after the incision, then put them to the bottles containing fixation solution, and give labels. The intensions of the fixation are:
3. Tissue Processing Protocol/Paraffin Block
The tissue's processing is started after the fixation completed. The steps of this process are dehydration, clearing, and impregnation/embedding. […] Afterward, do the clearing by place the tissue into xylol. Then, do the impregnation/embedding by using paraffin. The detail of this process is as follows: After the fixation is completed, the tissues are placed into the following solution, consecutively. 1. Alcohol 70%: - 2. Alcohol 80% 1 hour 3. Alcohol 95%: 2 hour 4. Alcohol 95%: 1 hour 5. Alcohol 100%: 1 hour 6. Alcohol 100%: 1 hour 7. Alcohol 100%: 1 hour 8. Xylol: 1 hour 9. Xylol: 1 hour 10. Xylol: 2 hour 11. Paraffin (56-58° C.): 2 hour 12. Paraffin (56-58° C.) 2 hour 13. Paraffin (56-58° C.) 2 hour
4. Tissue Slicing and Attaching Process on object glass Protocol.
5. Hematoxilin Eosin Dyeing Protocol
The steps of HE dyeing method are:
This research use 24 Rats divided into 4 groups of treatment; they are Vaseline, Sibro, Gentamicin and Test. Composition. Each group has 6 rats.
2. […] After then stopped the bleeding, applied Vaseline, Sibro, Gentamicin and Test Composition to each group. Application of Vaseline (201), Sibro (202), Gentamicin (203) and Test Composition (204) are illustrated in FIG. 2.
There are 4 parameters in observing incised wound microscopically, they are Epithelization, Fibroplasia, Neovascularization, and scar.

[2] = test system: MRSA 10; experiment: Infected incised wound of rats, MRSA 10; format: in vivo, Rattus Norvegicus; conditions: wound infected with MRSA 10; 6 rats
Experimental: (§3) Effectivity Study on Infected Incised Wound of Rattus Norvegicus Experimental Research on Animal Testing
(§4) Method: Solution Preparation Protocol for Infected Incised Wound
(§5) Preparing the solution with these following steps:
(§6) 1. Bacteria from the infected patient clinical isolate is planted on the media by streaking at for quadrant
(§7) 2. The isolated bacteria in separated colonies are dissolved in the tube that contain pz liquid
(§8) 3. In order to analyze the cloudness level of the solution on the tube, nephelometer is used to figure the cloudness level to 0.50 McFarland.
(§9) 4. 0.5 McFarland is equal to 1.5×10^8 CFU bacteria.
(§10) Infected Incised Wound Preparation Protocol on Animals
as §1
(§11) 1. Inject the animals with anesthesia drug containing ketamine hydrochloride, 0.1-0.2 ml
(§12) 2. Place them back into the cage while waiting them to be fully unconscious as the effect of the drug.
as §2
(§13) 4. Give antiseptics, i.e. povidone iodine and alcohol. Wait for three minutes.
(§14) 5. Make a 2-cm long incision on the animal's back. Should any bleeding occurred, wipe with cotton.
(§15) 6. Swipe the incised spot with the bacteria solution using a cotton bud.
(§16) 7. Cover the spot with gauze bandage and stick it with plaster.
8. […]
(§17) The tissue's processing is started after the fixation completed. […] Remove from the oven and leave it in room temperature, then the tissue is ready to dye. […]

[3] = test system: MRSA 6; experiment: Infected incised wound of rats, MRSA 6; format: in vivo, Rattus Norvegicus; conditions: wound infected with MRSA 6; 6 rats
Experimental: as §3, §4, §5, §6, §7, §8, §9, §10, §1, §11, §12, §2, §13, §14, §15, §16
8. […]
as §17

[4] = incised wound, microscopic (HE), after 7 days

Compound	Wound condition on day −7 (macroscopic) ([1]; incised wound, macroscopic condition)	Epitheliazation [1, 4]	Fibroplasia [1, 4]	Neo vascularization [1, 4]	Scar [1, 4]	Dead Rats ([1]; substance applied on 2-cm incised wound, 6 rats per group, up to day 7)	Survival on day −7 ([1]; substance applied on 2-cm incised wound, survivors/6 rats)	Dead Rats [2]	Survival [2]	Dead Rats [3]	Survival [3]
Gentamicin [Gentamisin]	Closing (with 1 granulation)	+	+	++	+	0	6/6				
C/C(=C\C(=O)OCCCCCCCCC(=O)O)C[C@@H]1OC[C@H](C[C@@H]2O[C@H]2[C@@H](C)[C@H](C)O)[C@@H](O)[C@H]1O [mupirocine, Mupirocin]								0	6	0	6
